Measured values published in patent US8383619B2, “Pharmaceutical compounds” (Astex Therapeutics Limited, priority 2008, dated 2013).

Experiments:
Type in all cases: cell-based
[1] = tested on: one hundred cell lines; test: Anti-proliferative assays against one hundred cell lines; details: wide range of different cell lines
Protocol: The anti-proliferative activities of the parent compounds of the pro-drugs of the invention may be determined by measuring the ability of the compounds to inhibition of cell growth in a number of cell lines such as the human colon cancer cell line HCT116. Inhibition of cell growth is measured using the Alamar Blue assay (Nociari, M. M, Shalev, A., Benias, P., Russo, C. Journal of Immunological Methods 1998, 213, 157-167). The method is based on the ability of viable cells to reduce resazurin to its fluorescent product resorufin. For each proliferation assay cells are plated onto 96 well plates and allowed to recover for 16 hours prior to the addition of inhibitor compounds for a further 72 hours. At the end of the incubation period 10% (v/v) Alamar Blue is added and incubated for a further 6 hours prior to determination of fluorescent product at […]. In the case of the non-proliferating cell assay cells are maintained at confluence for 96 hour prior to the addition of inhibitor compounds for a further 72 hours. The number of viable cells is determined by Alamar Blue assay as before. Cell lines may be obtained from the ECACC (European Collection of cell Cultures). […]

[2] = tested on: LB796-BLC; test: Anti-proliferative assay (Oncodesign); details: LB796-BLC (URINARY BLADDER); read-out: IC50 (Concentration of test compound)
In short: (§1)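 Alamar Blue readout: viable cells reduce resazurin to fluorescent resorufin, measured at […] after 6 h with 10% (v/v) reagent. Compound exposure lasted 72 h following a 16 h recovery; IC50 reported in nM, tested up to 10,000 nanomolar.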

[3] = tested on: NCI-H1299; test: Anti-proliferative assay (Oncodesign); details: Homo sapiens; NCI-H1299 (LUNG); read-out: IC50 (Concentration of test compound)
In short: as §1

[4] = tested on: T24; test: Anti-proliferative assay (Oncodesign); details: Homo sapiens, T-24; T24 (URINARY BLADDER); read-out: IC50 (Concentration of test compound)
In short: as §1

[5] = tested on: KB; test: Anti-proliferative assay (Oncodesign); details: Homo sapiens; KB (HEAD AND NECK); read-out: IC50 (Concentration of test compound)
In short: as §1

[6] = tested on: SW-872; test: Anti-proliferative assay (Oncodesign); details: Homo sapiens, SW872; SW-872 (CONNECTIVE TISSUE); read-out: IC50 (Concentration of test compound)
In short: as §1

[7] = tested on: MCF-7/ras; test: Anti-proliferative assay (Oncodesign); details: Homo sapiens, MCF7; MCF-7/ras (BREAST); read-out: IC50 (Concentration of test compound)
In short: as §1

[8] = tested on: Malme-3M; test: Anti-proliferative assay (Oncodesign); details: Homo sapiens; Malme-3M (SKIN); read-out: IC50 (Concentration of test compound)
In short: as §1

[9] = tested on: LB1047-RCC; test: Anti-proliferative assay (Oncodesign); details: LB1047-RCC (KIDNEY); read-out: IC50 (Concentration of test compound)
In short: as §1

[10] = tested on: LB11-SCLC/OC1; test: Anti-proliferative assay (Oncodesign); details: LB11-SCLC/OC1 (LUNG); read-out: IC50 (Concentration of test compound)
In short: as §1

[11] = tested on: DLD-1; test: Anti-proliferative assay (Oncodesign); details: Homo sapiens; DLD-1 (COLON); read-out: IC50 (Concentration of test compound)
In short: as §1

[12] = tested on: Capan-2; test: Anti-proliferative assay (Oncodesign); details: Homo sapiens; Capan-2 (PANCREAS); read-out: IC50 (Concentration of test compound)
In short: as §1

[13] = tested on: Daudi; test: Anti-proliferative assay (Oncodesign); details: Homo sapiens; Daudi (BLOOD); read-out: IC50 (Concentration of test compound)
In short: as §1

[14] = tested on: J82; test: Anti-proliferative assay (Oncodesign); details: Homo sapiens; J82 (URINARY BLADDER); read-out: IC50 (Concentration of test compound)
In short: as §1

[15] = tested on: RPMI 8226/Dox40; test: Anti-proliferative assay (Oncodesign); details: Homo sapiens; RPMI 8226/Dox40 (BLOOD); read-out: IC50 (Concentration of test compound)
In short: as §1

[16] = tested on: Calu-6; test: Anti-proliferative assay (Oncodesign); details: Homo sapiens; Calu-6 (LUNG); read-out: IC50 (Concentration of test compound)
In short: as §1

[17] = tested on: A-498; test: Anti-proliferative assay (Oncodesign); details: Homo sapiens, A498; A-498 (KIDNEY); read-out: IC50 (Concentration of test compound)
In short: as §1

[18] = tested on: LB37-NSCLC; test: Anti-proliferative assay (Oncodesign); details: LB37-NSCLC (LUNG); read-out: IC50 (Concentration of test compound)
In short: as §1

[19] = tested on: BB64-RCC; test: Anti-proliferative assay (Oncodesign); details: BB64-RCC (KIDNEY); read-out: IC50 (Concentration of test compound)
In short: as §1

[20] = tested on: Calu-1; test: Anti-proliferative assay (Oncodesign); details: Homo sapiens; Calu-1 (LUNG); read-out: IC50 (Concentration of test compound)
In short: as §1

[21] = tested on: ARH-77; test: Anti-proliferative assay (Oncodesign); details: Homo sapiens; ARH-77 (BLOOD); read-out: IC50 (Concentration of test compound)
In short: as §1

[22] = tested on: SK-HEP-1; test: Anti-proliferative assay (Oncodesign); details: Homo sapiens, SK-HEP1; SK-HEP-1 (LIVER); read-out: IC50 (Concentration of test compound)
In short: as §1

[23] = tested on: DU 145; test: Anti-proliferative assay (Oncodesign); details: Homo sapiens; DU 145 (PROSTATE); read-out: IC50 (Concentration of test compound)
In short: as §1

[24] = tested on: LB1319-MEL; test: Anti-proliferative assay (Oncodesign); details: LB1319-MEL (SKIN); read-out: IC50 (Concentration of test compound)
In short: as §1

[25] = tested on: NCI-H82; test: Anti-proliferative assay (Oncodesign); details: Homo sapiens; NCI-H82 (LUNG); read-out: IC50 (Concentration of test compound)
In short: as §1

CC(C)c1cc(C(=O)N2Cc3ccc(CN4CCN(C)CC4)cc3C2)c(O)cc1O [(2,4-dihydroxy-5-isopropyl-phenyl)-[5-(4-methyl-piperazin-1-ylmethyl)-1,3-dihydro-isoindol-2-yl]-methanone]
anti-proliferative activity [1]: potent anti-proliferative activity | IC50 [2]: 0.083 µM | IC50 [3]: 0.587 µM | IC50 [4]: 0.852 µM | IC50 [5]: 0.048 µM | IC50 [6]: > 10 µM | IC50 [7]: 0.166 µM | IC50 [8]: 0.157 µM | IC50 [9]: 0.058 µM | IC50 [10]: 0.017 µM | IC50 [11]: 0.056 µM | IC50 [12]: 0.144 µM | IC50 [13]: 0.136 µM | IC50 [14]: 0.02 µM | IC50 [15]: 0.213 µM | IC50 [16]: 0.032 µM | IC50 [17]: 0.267 µM | IC50 [18]: 0.063 µM | IC50 [19]: > 10 µM | IC50 [20]: 0.27 µM | IC50 [21]: > 10 µM | IC50 [22]: > 10 µM | IC50 [23]: 0.085 µM | IC50 [24]: 0.035 µM | IC50 [25]: > 10 µM
